“Also recorded” adds a separate entry of the source.
Key:
[1] = test system: ubiquitin proteasomal pathway (UPP) in 8B20 mouse melanoma cells; test: Ubiquitin immunoblot controls for UPP inhibition in 8B20 cells; assay type: cell-based; details: 50 μM, negative control
Experimental: As a positive control of UPP inhibition, we used 8B20 mouse melanoma cells treated with UPP inhibitors MG132 (10 μM) and Lactacystin (10 μM), and as a negative control we used 8B20 cells treated with etoposide (50 μM), a DNA damaging agent.
SDS-PAGE and immunoblot analysis. Proteins were analyzed by SDS-PAGE (12% gels) followed by transfer to a polyvinylidene difluoride membrane (0.4 μM) in 25 mM Tris, 192 mM glycine, and 20% methanol at 110 V for 1 hour. Membranes were blocked overnight in 10 mM Tris-HCl, pH 8.0, 125 mM NaCl, and 0.2% (v/v) Tween 20 containing 5% (w/v) nonfat dry milk (TBST-M5). Immunoblot analysis of the total protein bands were visualized using enhanced chemiluminescence as described by the manufacturer (Pierce Biotechnology, Inc., Rockford, Ill.). Immunoblots were subsequently stripped of antibodies by incubating for 15-20 minutes at 37° C. with Restore Western Stripping Buffer (Pierce Biotechnology, Inc., Rockford, Ill.) and re-probed with β-actin antibody to confirm protein loading. Densitometric analysis of the membranes was performed using GelDoc 200 (Bio-Rad Laboratories, Hercules, Calif.).

[2] = test system: SKH-1 mice; test: Preliminary experiment assessing adverse effects of bucillamine alone in SKH-1 mice; assay type: in vivo; details: 20 mg/kg s.c., two doses 24 hours apart, no UVB
Experimental: In order to assess any adverse effects of bucillamine and UV exposure separately, a preliminary experiment was carried out in which SKH-1 mice were either treated with bucillamine (20 mg/kg s.c.) or UVB (230 mJ/cm^2) irradiation. Bucillamine can, for example, be administered intravenously, subcutaneously, intramuscularly or orally. Subcutaneous administration was used because it is a relatively easy route and the least likely to injure the animal during administration. The selection of bucillamine dose and UVB dose was based on previously published studies (13, 19, 21, 22). High dose of UVB (230 mJ/cm^2) was selected to investigate bucillamine effect on acute photodamage. Each group of animals received two doses of bucillamine or UVB, 24 hours apart. […] UVB exposure caused edema, erythema and thickening of the exposed skin.

[3] = test system: p53 (Ser15, Ser20); test: UVB-induced phosphorylation of p53 at Ser15 and Ser20 in skin (immunoblot); assay type: in vivo, mice; details: 20 mg/kg s.c. pre-treatment
Text: (§1) Animals and treatment for Example 2. Female SKH-1 hairless mice (6 weeks old) were purchased from Charles River Laboratories (Wilmington, Mass.). After their arrival, animals were housed at UCDHSC vivarium under specific pathogen-free conditions according to the National Institutes of Health Animal Care Guidelines under an Institutional protocol reviewed and approved by the Institutional Animal Care and Use Committee (IACUC). Animals were allowed to acclimatize for a week prior to the experiment. Animals were fed Purina chow diet and water ad libitum. Throughout the experimental protocol, the mice were maintained at standard conditions; temperature 24±2° C., relative humidity 50±10%, and 12 hour room light/12 hour dark cycle. Mice were divided into four groups. […] The remaining animals were divided into UV exposure alone (Group 2), UV+saline treatment (Group 3) and UV+bucillamine treatment (Group 4). Mice in groups 2-4 were exposed to two doses of 230 mJ/cm^2 UVB, 24 hours apart. Two hours prior to each UVB exposure, mice in groups 3 and 4 were treated with normal saline (Group 3) or bucillamine at a concentration of 20 mg/kg of body weight (Group 4) subcutaneously. […]
(§2) SDS-PAGE and immunoblot analysis. Proteins were analyzed by SDS-PAGE (12% gels) followed by transfer to a polyvinylidene difluoride membrane (0.4 μM) in 25 mM Tris, 192 mM glycine, and 20% methanol at 110 V for 1 hour. […]

[4] = test system: p53; test: UVB-mediated total p53 induction in skin lysates (immunoblot); assay type: in vivo, mice; details: 20 mg/kg s.c. pre-treatment
Text: as §1, §2

[5] = test system: PUMA; test: UVB-induced activation of PUMA, downstream target of p53, in skin; assay type: in vivo, mice; details: 12 and 24 hours after the last UVB exposure; 20 mg/kg s.c. pre-treatment
Text: as §1, §2

[6] = test system: p53; test: Immunohistochemical analysis of nuclear p53 staining in epidermal keratinocytes; assay type: in vivo, mice; details: 24 hours after the last UVB exposure; 20 mg/kg s.c. pre-treatment
Text: Animals and treatment for Example 2. Female SKH-1 hairless mice (6 weeks old) were purchased from Charles River Laboratories (Wilmington, Mass.). After their arrival, animals were housed at […] vivarium under specific pathogen-free conditions according to the National Institutes of Health Animal Care Guidelines under an Institutional protocol reviewed and approved by the Institutional Animal Care and Use Committee (IACUC). Animals were allowed to acclimatize for a week prior to the experiment. Animals were fed Purina chow diet and water ad libitum. Throughout the experimental protocol, the mice were maintained at standard conditions; temperature 24±2° C., relative humidity 50±10%, and 12 hour room light/12 hour dark cycle. Mice were divided into four groups. […] The remaining animals were divided into UV exposure alone (Group 2), UV+saline treatment (Group 3) and UV+bucillamine treatment (Group 4). Mice in groups 2-4 were exposed to two doses of 230 mJ/cm^2 UVB, 24 hours apart. Two hours prior to each UVB exposure, mice in groups 3 and 4 were treated with normal saline (Group 3) or bucillamine at a concentration of 20 mg/kg of body weight (Group 4) subcutaneously. […] All samples were coded and evaluated by at least two investigators in a blinded manner. […]

[7] = test system: UV-exposed skin of SKH-1 hairless mice; test: Histology of UVB-exposed dorsal skin after bucillamine pre-treatment; assay type: in vivo
Text: Animals and treatment for Example 2. Female SKH-1 hairless mice (6 weeks old) were purchased from Charles River Laboratories (Wilmington, Mass.). After their arrival, animals were housed at UCDHSC vivarium under specific pathogen-free conditions according to the National Institutes of Health Animal Care Guidelines under an Institutional protocol reviewed and approved by the Institutional Animal Care and Use Committee (IACUC). Animals were allowed to acclimatize for a week prior to the experiment. Animals were fed Purina chow diet and water ad libitum. Throughout the experimental protocol, the mice were maintained at standard conditions; temperature 24±2° C., relative humidity 50±10%, and 12 hour room light/12 hour dark cycle. Mice were divided into four groups. […] The remaining animals were divided into UV exposure alone (Group 2), UV+saline treatment (Group 3) and UV+bucillamine treatment (Group 4). Mice in groups 2-4 were exposed to two doses of 230 mJ/cm^2 UVB, 24 hours apart. Two hours prior to each UVB exposure, mice in groups 3 and 4 were treated with normal saline (Group 3) or bucillamine at a concentration of 20 mg/kg of body weight (Group 4) subcutaneously. Animals were sacrificed after the last UVB exposure at various time points, and the dorsal skin was surgically removed and used for further analysis.
UVB Source. We employed four FS-40-T-12-UVB sunlamps with UVB spectra 305 Dosimeter (Daavlin, Bryan, Ohio), which emitted about 80% radiation in the range of 280-340 nm with a peak emission at 314 nm as monitored with a SEL 240 photodetector, 103 filter and 1008 diffuser attached to an IL1400A NIST Traceable Radiometer/Photometer from International Light (Newburyport, Mass.). The UVB irradiation doses were also calibrated using an IL1400A radiometer.
Histopathology. Skin samples were fixed in 10% formalin and embedded in paraffin. Vertical sections (4 μm thickness) were cut and mounted on a glass slide, and stained with hematoxylin and eosin followed by microscopic evaluation of the slides. SKH-1 hairless mice were unexposed or irradiated with UVB (230 mJ/cm^2) twice, 24 hours apart. Mice irradiated with UVB were untreated or pre-treated with bucillamine or saline. Skin samples were collected at 6 hours and 24 hours after the last UVB exposure, and processed for histopathological analysis.

[8] = 12 and 24 hours after the last UVB exposure
[9] = 6 hours after the last UVB exposure

Row | Compound | ubiquitin reactive high molecular weight bands (polyubiquitinated species) [1] | adverse effects [2] | phosphorylation of p53 at Ser15 and Ser20 [3, 8] | phosphorylation of p53 at Ser15 and Ser20 [3, 9] | p53 level [4, 8] | induction of total p53 [4, 9] | activation of PUMA [5] | nuclear p53 staining in epidermal keratinocytes [6] | UVB-induced erythema of dorsal skin ([7]; 20 mg/kg s.c. 2 h before each of two 230 mJ/cm^2 UVB exposures) | UVB-induced inflammation ([7]; 12 and 24 hours after the last UVB exposure, pre-treatment) | epidermal necrosis (histology) ([7]; 6 hours after the last UVB exposure, 20 mg/kg s.c. pre-treatment) | UV-effects on inflammation (dermal edema, leukocyte infiltration, dilatation of blood vessels) ([7]; 24 hours after the last UVB exposure, 20 mg/kg s.c. pre-treatment)
1 | COc1cc([C@@H]2c3cc4c(cc3[C@@H](O[C@@H]3O[C@@H]5CO[C@@H](C)O[C@H]5[C@H](O)[C@H]3O)[C@H]3COC(=O)[C@H]23)OCO4)cc(OC)c1O [etoposide] | no polyubiquitinated species | – | – | – | – | – | – | – | – | – | – | –
2 | CC(C)(S)C(=O)N[C@@H](CS)C(=O)O [bucillamine, N-(2-mercapto-2-methylpropionyl)-L-cysteine] | – | no adverse effects | further diminished the phosphorylation; also recorded: quick decrease | attenuated this effect | further decreased | attenuated this effect | attenuated the activation of PUMA | diminished this effect | attenuated the erythema | attenuated the inflammation | epidermal necrosis was less prominent | attenuated the UV-effects on inflammation
